Measured values published in patent publication US11111248B2, “Crystal form of 2-(6-methyl-pyridin-2-yl)-3-yl-[6-amido-quinolin-4-yl]-5,6-dihydro-4H-pyrrolo[1,2-B]pyrazole, preparation method therefor and pharmaceutical composition thereof” (Hangzhou SoliPharma Co., Ltd., priority 2017, dated 2021).
Values after ≈ are worked out from the molar mass of the structure shown. “Also recorded” adds a separate entry of the source.

Key:
Assay type in all cases: physicochemical
[1] = water solubility test; details: for Solubility: 25° C.±2° C., visual clarity, 5 mg sample, max 100 mL water
Method: Accurately weighed 5 mg samples in a 200 mL flask which was in a water bath with temperature 25° C.±2° C., added water in a geometric fashion the flask, stirred (about 200 r/min), and observed by naked eyes to see if it was clear. Water was added every 3 mins, maximum water amount 100 mL.

[2] = isothermal sorption (dynamic vapor sorption); details: 0% RH to 80% RH; for hygroscopicity: isothermal sorption
Method: Dynamic vapor sorption data and isothermal sorption data were collected on TA Instruments Q5000 TGA. Method: A sample of 1 to 10 mg was placed in a platinum pan; the weight change of the sample during the change in relative humidity from 0% to 80% to 0% was measured.

[3] = thermal phase stability from DSC and TGA thermograms; details: for phase transformation on heating: DSC and TGA thermograms
Method: […] data were collected on TA Instruments Q200 DSC. Method: A sample of 1 to 10 mg was placed in an aluminum pan with a pin-holed lid, and the sample was heated from room temperature to 200° C. at a heating rate of 10° C./min under the protection of dry nitrogen purge at 40 mL/min.
Thermogravimetric analysis data were collected on TA Instruments Q500 TGA. Method: A sample of 5 to 15 mg was placed in a platinum pan, using High Resolution™, the sample was heated from room temperature to 350° C. at a heating rate of 10° C./min under the protection of dry nitrogen purge at 40 mL/min.

| Structure (SMILES) | water solubility [1] | Solubility [1] [µg/mL] | weight change, isothermal sorption curve [2] [%] | hygroscopicity [2] | dehydration and start of phase transition temperature ([3]; DSC) [°C] | phase transformation on heating [3] | phase transition temperature lower than that of Form 2 ([3]; DSC thermograms, difference to Form 2) [°C] |
| --- | --- | --- | --- | --- | --- | --- | --- |
| Cc1cccc(-c2nn3c(c2-c2ccnc4ccc(C(N)=O)cc24)CCC3)n1 [LY2157299 Form 2, 2-(6-methyl-pyridin-2-yl)-3-(6-amido-quinolin-4-yl)-5,6-dihydro-4h-pyrrolo[1,2-b]pyrazole] | about 200 ug/mL | 200 (≈ 541 µM) | 0.25 | slightly hygroscopic |  |  |  |
| Cc1cccc(-c2nn3c(c2-c2ccnc4ccc(C(N)=O)cc24)CCC3)n1 [LY2157299 Monohydrate, 2-(6-methyl-pyridin-2-yl)-3-(6-amido-quinolin-4-yl)-5,6-dihydro-4h-pyrrolo[1,2-b]pyrazole] |  | <50 |  | slightly hygroscopic | 133 | dehydrates under temperature and its phase transformes; also recorded: dehydrates under temperature and has phase transformation | 60 |
| Cc1cccc(-c2nn3c(c2-c2ccnc4ccc(C(N)=O)cc24)CCC3)n1 [LY2157299 Form 7, 2-(6-methyl-pyridin-2-yl)-3-(6-amido-quinolin-4-yl)-5,6-dihydro-4h-pyrrolo[1,2-b]pyrazole] | about 100 μg/mL | 100 (≈ 271 µM) |  |  |  |  |  |
| Cc1cccc(-c2nn3c(c2-c2ccnc4ccc(C(N)=O)cc24)CCC3)n1 [LY2157299 Form 1, 2-(6-methyl-pyridin-2-yl)-3-(6-amido-quinolin-4-yl)-5,6-dihydro-4h-pyrrolo[1,2-b]pyrazole] | about 160 ug/mL | 160 (≈ 433 µM) |  | non-hygroscopic |  | no phase transformation before melting |  |

The remaining lines, values ahead:

| water solubility [1] | Solubility [1] [µg/mL] | weight change, isothermal sorption curve [2] [%] | hygroscopicity [2] | dehydration and start of phase transition temperature ([3]; DSC) [°C] | phase transformation on heating [3] | phase transition temperature lower than that of Form 2 ([3]; DSC thermograms, difference to Form 2) [°C] | Structure (SMILES) |
| --- | --- | --- | --- | --- | --- | --- | --- |
| about 150 μg/mL | 150 (≈ 406 µM) |  | non-hygroscopic |  | no phase transformation before melting |  | Cc1cccc(-c2nn3c(c2-c2ccnc4ccc(C(N)=O)cc24)CCC3)n1 [LY2157299 Form 3, 2-(6-methyl-pyridin-2-yl)-3-(6-amido-quinolin-4-yl)-5,6-dihydro-4h-pyrrolo[1,2-b]pyrazole] |
| about 100 ug/mL | 100 (≈ 271 µM) | 0.95 | slightly hygroscopic |  |  |  | Cc1cccc(-c2nn3c(c2-c2ccnc4ccc(C(N)=O)cc24)CCC3)n1 [LY2157299 Form 4, 2-(6-methyl-pyridin-2-yl)-3-(6-amido-quinolin-4-yl)-5,6-dihydro-4h-pyrrolo[1,2-b]pyrazole] |
